Data published in ChEMBL document CHEMBL4808221, “Design and Synthesis of Novel c-di-GMP G-Quadruplex Inducers as Bacterial Biofilm Inhibitors” (J Med Chem, 2021).
Calls of active or inactive are those of the source. The rule behind the calls is not given here.

Tests used:
[1] = system: c-di-GMP G-quadruplex; assay: Induction of c-di-GMP G-quadruplex formation in Pseudomonas aeruginosa PAO1 harboring wspF gene mutation assessed as suppression of cdrA expression at 1.25 uM incubated for 15 hrs by transcriptome analysis
[2] = system: c-di-GMP G-quadruplex; assay: Induction of c-di-GMP G-quadruplex formation in Pseudomonas aeruginosa PAO1 harboring wspF gene mutation assessed as induction of flhF expression at 1.25 uM incubated for 15 hrs by transcriptome analysis
[3] = system: Pseudomonas aeruginosa; assay: Effect on swarming capacity of Pseudomonas aeruginosa PAO1 harboring wspF gene mutation assessed as increase in motility at 3.75 uM incubated for 14 hrs relative to control; type: functional
[4] = system: c-di-GMP G-quadruplex; assay: Induction of c-di-GMP G-quadruplex formation in Pseudomonas aeruginosa PAO1 harboring wspF gene mutation assessed as inhibition of biofilm formation incubated for 24 hrs by confocal microscopic method; type: nucleic-acid assay
[5] = system: DNA; assay: Toxicity assessed as induction of Escherichia coli pBR322 DNA intercalation activity at 10 uM incubated for 10 mins by polyacrylamide gel electrophoresis method
[6] = Binding affinity to d-NTP (unknown origin) at 5 uM by fluorescence method
[7] = system: Pseudomonas aeruginosa; assay: Effect on extracellular polysaccharide in Pseudomonas aeruginosa PAO1 harboring wspF gene mutation assessed as reduction in EPS production at 1.25 uM by congo red binding assay relative to control; type: functional; parameters: scale not given: the % may be the effect or the level left
[8] = system: c-di-GMP G-quadruplex; assay: Downregulation of c-di-GMP level in Pseudomonas aeruginosa PAO1 harboring wspF gene mutation assessed as reduction in Alg44 expression at 1.25 uM incubated for 15 hrs by transcriptome analysis
[9] = system: c-di-GMP G-quadruplex; assay: Induction of c-di-GMP G-quadruplex formation in Pseudomonas aeruginosa PAO1 harboring wspF gene mutation assessed as reduction in pelB expression at 1.25 uM by RT-PCR method
[10] = system: Bacteria; assay: Effect on WspR (unknown origin) assessed as reduction in c-di-GMP level at 1.25 to 5 uM measured by HPLC method; conditions: dose 1.25-5 µM
[11] = system: c-di-GMP G-quadruplex; assay: Induction of c-di-GMP G-quadruplex formation in Pseudomonas aeruginosa PAO1 harboring wspF gene mutation assessed as induction of fliD expression at 1.25 uM incubated for 15 hrs by transcriptome analysis
[12] = system: Pseudomonas aeruginosa; assay: Antibacterial activity against Pseudomonas aeruginosa PAO1 harboring wspF gene mutation assessed as reduction in bacterial growth at 512 uM by crystal violet staining assay relative to control; type: functional, organism-based
[13] = system: c-di-GMP G-quadruplex; assay: Induction of c-di-GMP G-quadruplex formation in Pseudomonas aeruginosa […] assessed as inhibition of biofilm formation at 0.15625 to 1.25 uM by confocal microscopic method; type: nucleic-acid assay; conditions: PAO1, dose 0.15625-1.25 µM
[14] = system: c-di-GMP G-quadruplex; assay: Induction of c-di-GMP G-quadruplex formation in Pseudomonas aeruginosa PAO1 harboring wspF gene mutation and LacZ reporter gene assessed as reduction in PelA expression by measuring decrease in lacZ activity at 0.3125 to 1.25 uM incubated for 4 hrs by absorbance method; conditions: dose 0.3125-1.25 µM
[15] = Binding affinity to r-NTP (unknown origin) at 5 uM by fluorescence method
[16] = system: Pseudomonas aeruginosa; assay: Effect on extracellular polysaccharide in Pseudomonas aeruginosa PAO1 harboring wspF gene mutation assessed as reduction in EPS production at 0.15625 to 0.625 uM by congo red binding assay; type: functional, organism-based; conditions: dose 0.15625-0.625 µM
[17] = system: c-di-GMP G-quadruplex; assay: Induction of c-di-GMP G-quadruplex formation in Pseudomonas aeruginosa PAO1 harboring wspF gene mutation assessed as reduction in cdrA expression at 1.25 uM by RT-PCR method
[18] = system: c-di-GMP G-quadruplex; assay: Induction of c-di-GMP G-quadruplex formation in Pseudomonas aeruginosa PAO1 harboring wspF gene mutation assessed as reduction in pslE expression at 1.25 uM by RT-PCR method
[19] = system: c-di-GMP G-quadruplex; assay: Induction of c-di-GMP G-quadruplex formation in Pseudomonas aeruginosa PAO1 harboring wspF gene mutation assessed as induction of flhA expression at 1.25 uM incubated for 15 hrs by transcriptome analysis
[20] = system: c-di-GMP G-quadruplex; assay: Downregulation of c-di-GMP level in Pseudomonas aeruginosa PAO1 harboring wspF gene mutation assessed as induction of tpbA expression at 1.25 uM incubated for 15 hrs by transcriptome analysis
[21] = system: Pseudomonas aeruginosa; assay: Antibacterial activity against Pseudomonas aeruginosa PAO1 harboring wspF gene mutation assessed as reduction in bacterial growth at 0.15625 to 2.5 uM by confocal microscopic method; type: functional, organism-based; conditions: dose 0.15625-2.5 µM
[22] = system: c-di-GMP G-quadruplex; assay: Induction of c-di-GMP G-quadruplex formation in Pseudomonas aeruginosa PAO1 harboring wspF gene mutation assessed as inhibition of biofilm formation at 1.25 uM incubated for 20 hrs by crystal violet staining assay relative to control; type: nucleic-acid assay
[23] = Cytotoxicity against human AC16 cells assessed as cell survival at 0.15625 to 10 uM incubated for 24 hrs by MTT assay relative to control; type: cell-based, AC16 [Human hybrid]; conditions: dose 0.15625-10 µM, read-out: Survival
[24] = system: Quadruplex DNA; assay: Induction of c-di-GMP G-quadruplex formation (unknown origin) measured at 300 nanometer by CD spectroscopy; type: nucleic-acid assay
[25] = system: c-di-GMP G-quadruplex; assay: Induction of c-di-GMP G-quadruplex formation in Pseudomonas aeruginosa PAO1 harboring wspF gene mutation assessed as induction of flhA expression at 1.25 uM by RT-PCR method
[26] = system: c-di-GMP G-quadruplex; assay: Induction of c-di-GMP G-quadruplex formation in Pseudomonas aeruginosa PAO1 harboring wspF gene mutation assessed as inhibition of biofilm formation incubated for 20 hrs by crystal violet staining assay relative to control; type: nucleic-acid assay
[27] = Cytotoxicity against human AC16 cells assessed as cell survival at 1.25 uM incubated for 24 hrs by MTT assay relative to control; type: cell-based, AC16 [Human hybrid]; conditions: read-out: Survival
[28] = Binding affinity to guanosine monophosphate (unknown origin) at 5 uM by fluorescence method
[29] = system: Pseudomonas aeruginosa; assay: Antibacterial activity against Pseudomonas aeruginosa PAO1 assessed as reduction in biofilm formation at 0.15625 to 1.25 uM by crystal violet staining method; type: functional, organism-based; conditions: dose 0.15625-1.25 µM
[30] = system: Pseudomonas aeruginosa; assay: Effect on swarming capacity of Pseudomonas aeruginosa PAO1 harboring wspF gene mutation assessed as increase in motility at 5 uM incubated for 14 hrs relative to control; type: functional
[31] = system: Bacteria; assay: Effect on RocR (unknown origin) assessed as induction of c-di-GMP degradation at 1.25 to 5 uM measured by HPLC method; conditions: dose 1.25-5 µM
[32] = Binding affinity to c-di-GMP (unknown origin) at 5 uM using varying level of c-di-GMP by fluorescence method
[33] = system: c-di-GMP G-quadruplex; assay: Induction of c-di-GMP G-quadruplex formation in Pseudomonas aeruginosa PAO1 harboring wspF gene mutation assessed as induction of flgA expression at 1.25 uM incubated for 15 hrs by transcriptome analysis
[34] = system: c-di-GMP G-quadruplex; assay: Induction of c-di-GMP G-quadruplex formation in Pseudomonas aeruginosa PAO1 harboring wspF gene mutation assessed as induction of fleN expression at 1.25 uM by RT-PCR method
[35] = system: c-di-GMP G-quadruplex; assay: Induction of c-di-GMP G-quadruplex formation in Pseudomonas aeruginosa PAO1 harboring wspF gene mutation assessed as induction of fleN expression at 1.25 uM incubated for 15 hrs by transcriptome analysis
[36] = system: Pseudomonas aeruginosa; assay: Effect on swarming capacity of Pseudomonas aeruginosa PAO1 harboring wspF gene mutation assessed as increase in motility at 2.5 uM incubated for 14 hrs relative to control; type: functional

COc1cc(/C=C/c2sc3ccccc3[n+]2C)ccc1O.[I-]
Activity [1]: Active
Activity [2]: Active
Activity [3]: 34%
Activity [4]: Dose-Dependent Effect
Activity [5]: Non-Toxic
Activity [6]: Active
Activity [7]: 30%
Activity [8]: Active
Activity [9]: Active
Activity [10]: inactive
Activity [11]: Active
Activity [12]: inactive
Activity [13]: Active
Activity [14]: Active
Activity [15]: Active
Activity [16]: Active
Activity [17]: Active
Activity [18]: Active
Activity [19]: Active
Activity [20]: Active
Activity [21]: inactive
inhibition [22]: 62.2%
viability at 24 h, up to 10 µM [23]: > 90%
Activity [24]: Active
Activity [25]: Active
IC50 [26]: 0.88 µM
viability at 24 h, 1.25 µM [27]: 96%
Activity [28]: Active
Activity [29]: Active
Activity [30]: 77%
Activity [31]: inactive
Activity [32]: Active
Activity [33]: Active
Activity [34]: Active
Activity [35]: Active
Activity [36]: 15%

C[n+]1c(/C=C/c2ccccc2)sc2ccccc21
Activity [12]: inactive
inhibition [22]: 19.5%
Activity [24]: inactive
IC50 [26]: > 100 µM

C[n+]1c(/C=C/c2cccc(O)c2)ccc2ccccc21
Activity [12]: inactive
inhibition [22]: 29.4%
Activity [24]: Active
IC50 [26]: 6.81 µM

C[n+]1c(/C=C/c2cnccn2)sc2ccccc21
Activity [12]: inactive
inhibition [22]: 11.4%
Activity [24]: inactive
IC50 [26]: > 100 µM

COc1cc(/C=C/c2ccc3ccccc3[n+]2C)ccc1O
Activity [12]: inactive
inhibition [22]: 21%
Activity [24]: Active
IC50 [26]: 5.4 µM

C[n+]1c(/C=C/c2ccc(O)c(F)c2)sc2ccccc21
Activity [12]: inactive
inhibition [22]: -7.67%
Activity [24]: inactive
IC50 [26]: > 100 µM

CN(C)c1ccc(/C=C/c2sc3ccccc3[n+]2C)cc1
Activity [12]: inactive
inhibition [22]: -2.67%
Activity [24]: inactive
IC50 [26]: > 100 µM

C[n+]1c(/C=C/c2ccc(O)c(F)c2)ccc2ccccc21
Activity [12]: inactive
inhibition [22]: 4.21%
Activity [24]: inactive
IC50 [26]: > 100 µM

C[n+]1c(/C=C/c2ccc(O)c(O)c2)sc2ccccc21
Activity [12]: inactive
inhibition [22]: 21.7%
Activity [24]: Active
IC50 [26]: 11.5 µM

C[n+]1c(/C=C/c2ccc(N3CCOCC3)cc2)sc2ccccc21
Activity [12]: inactive
inhibition [22]: 2.71%
Activity [24]: inactive
IC50 [26]: > 100 µM

C[n+]1c(/C=C/c2ccncc2)ccc2ccccc21
Activity [12]: inactive
inhibition [22]: 13%
Activity [24]: inactive
IC50 [26]: > 100 µM

C[n+]1c(/C=C/c2cc[nH]c2)ccc2ccccc21
Activity [12]: inactive
inhibition [22]: 22.2%
Activity [24]: Active
IC50 [26]: 9.61 µM

COc1ccc(/C=C/c2sc3ccccc3[n+]2C)cc1
Activity [12]: inactive
inhibition [22]: -4.78%
Activity [24]: inactive
IC50 [26]: > 100 µM
